Where “and” joins values, the source holds several entries; their conditions need not be identical. Equal entries are not always repeated.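 Five concentrations, 48 hours, 96-well plates. Abbreviation: GI50, concentration required for 50% inhibition of growth. At the TGI there is no net growth.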 Where a SMILES comes first, the peptide text is derived from it. [ ]: non-standard residue; d: D form. pGlu = O=C1CC[CH](C(=O)O)N1

Some test systems named below: UO-31 renal; BT-549 breast; SK-MEL-28 melanoma; KM12 colon; SK-OV-3 ovarian; HCC-2998 colon; ACHN renal; HL-60(TB) leukemia.
Test in all cases: DTP human tumour cell line panel, 48 h

As for `CCOc1cccc(/C=N/N=C2\C(=O)Nc3c(Cl)cc(Cl)cc32)c1O`, the TGI in the experiment with UO-31 renal, in the experiment on BT-549 breast, in the experiment with SK-MEL-28 melanoma, with KM12 colon, in the experiment on SK-OV-3 ovarian and with HCC-2998 colon was greater than 100 µM each time. Also, the TGI with ACHN renal and in the experiment on HL-60(TB) leukemia was greater than 100 µM each time.
For the compound `COC(=O)C1CC23CCCN4CCC5(c6ccccc6N(C=O)C15CC2)C43` (centres undefined), the TGI with UO-31 renal, in the experiment on BT-549 breast, in the experiment on SK-MEL-28 melanoma, in the experiment with KM12 colon, in the experiment with SK-OV-3 ovarian and in the experiment with HCC-2998 colon was greater than 100 µM in each case. The TGI with ACHN renal and in the experiment on HL-60(TB) leukemia was greater than 100 µM in each case.
Consider `CN(CCO)CC[C@H](CSc1ccccc1)Nc1ccc(S(=O)(=O)NC(=O)c2ccc(N3CCC([C@@H](O)c4ccccc4-c4ccc(Cl)cc4)CC3)cc2)cc1S(=O)(=O)C(F)(F)F`, for which the GI50 with UO-31 renal was greater than 100 µM; with BT-549 breast, 2.69 µM; in the experiment on SK-MEL-28 melanoma, 2.23 µM; in the experiment with KM12 colon, 3.18 µM; in the experiment on SK-OV-3 ovarian, 4.98 µM; in the experiment with HCC-2998 colon, 0.286 µM. Further, the GI50 in the experiment with ACHN renal was greater than 27.8 µM; with HL-60(TB) leukemia it was 0.886 µM. For the same compound, the total growth inhibition concentration (TGI) in the experiment on UO-31 renal is greater than 100 µM; in the experiment on BT-549 breast, 11 µM; in the experiment on SK-MEL-28 melanoma, 5.11 µM; with KM12 colon it was 13.8 µM; with SK-OV-3 ovarian, 20.7 µM; in the experiment on HCC-2998 colon, 1.69 µM. Further, the TGI was greater than 100 µM in the experiment on ACHN renal and 8.1 µM with HL-60(TB) leukemia.
Consider `CC[C@@H]1c2c(C#N)ncn2-c2cnc(Nc3ccc(C(=O)NC4CCN(C5CCN(CC6CC6)CC5)CC4)cc3OC)nc2N1C1CCCC1`, for which the GI50 was 1.36 µM with UO-31 renal; 0.485 µM in the experiment on BT-549 breast; 0.127 µM with SK-MEL-28 melanoma; 0.0363 µM and 0.0338 µM in the experiment with KM12 colon; 0.0384 µM and 0.122 µM with SK-OV-3 ovarian; 0.04 µM and 0.0308 µM with HCC-2998 colon. For the same compound, the results for the GI50 in the experiment on ACHN renal and in the experiment on HL-60(TB) leukemia were 0.625 µM and 0.0249 µM, respectively. The TGI with UO-31 renal is 2.69 µM; in the experiment on BT-549 breast, 1.85 µM; with SK-MEL-28 melanoma, 1.75 µM; in the experiment on KM12 colon it was 1.07 µM and 1.05 µM; with SK-OV-3 ovarian, 1.04 µM and 1.64 µM; in the experiment with HCC-2998 colon, 1.09 µM and 0.162 µM. The total growth inhibition concentration (TGI) with ACHN renal worked out at 1.93 µM; in the experiment with HL-60(TB) leukemia, 0.104 µM.
As to `COC12C=C/C(=C(/C(=O)OCc3cncnc3)C(=O)CCCCCCCCC3(OC)C=C/C(=C(/C(=O)OCc4cncnc4)C(=O)CCCCCCCC1)O3)O2`, the GI50 in the experiment on UO-31 renal was 0.542 µM; in the experiment with BT-549 breast it was 0.188 µM; in the experiment with SK-MEL-28 melanoma, 0.325 µM; in the experiment with KM12 colon it was 0.305 µM; in the experiment on SK-OV-3 ovarian it was 1.23 µM; with HCC-2998 colon, 0.821 µM. The GI50 was 0.36 µM with ACHN renal and 0.387 µM in the experiment on HL-60(TB) leukemia. Also, the TGI with UO-31 renal was 1.28 µM; in the experiment with BT-549 breast it was 2.07 µM; in the experiment on SK-MEL-28 melanoma it was 1.65 µM; with KM12 colon it was 1.28 µM; in the experiment with SK-OV-3 ovarian it was 5.31 µM; in the experiment on HCC-2998 colon, 1.61 µM. Moreover, the total growth inhibition concentration (TGI) in the experiment on ACHN renal is 1.08 µM; with HL-60(TB) leukemia it was 2.82 µM.
For the compound `CCNC(=O)C1CCCN1C(=O)C(CCCN=C(N)N)NC(=O)C(CC(C)C)NC(=O)C(CC(C)C)NC(=O)C(Cc1ccc(O)cc1)NC(=O)C(CO)NC(=O)C(Cc1c[nH]c2ccccc12)NC(=O)C(Cc1cnc[nH]1)NC(=O)C1CCC(=O)N1` (centres undefined) ([pGlu]HWSYLLRP-NHEt; configuration not given here), the GI50 in the experiment with UO-31 renal, in the experiment on BT-549 breast, with SK-MEL-28 melanoma, with KM12 colon, with SK-OV-3 ovarian and in the experiment with HCC-2998 colon was greater than 100 µM each time. Also, the GI50 with ACHN renal and with HL-60(TB) leukemia was greater than 100 µM throughout. Besides, the TGI with UO-31 renal, in the experiment with BT-549 breast, with SK-MEL-28 melanoma, in the experiment on KM12 colon, with SK-OV-3 ovarian and in the experiment on HCC-2998 colon was greater than 100 µM each time. The TGI with ACHN renal and in the experiment on HL-60(TB) leukemia was greater than 100 µM each time.
On to `C[C@@]1(C(=O)O)CCC[C@]2(C)C1CC[C@@]13CC(=O)[C@@](CO)(CC[C@]12O)C3` (some centres undefined), for which the GI50 with UO-31 renal is greater than 100 µM; in the experiment with BT-549 breast it was greater than 100 µM; in the experiment on SK-MEL-28 melanoma, greater than 100 µM; in the experiment with KM12 colon it was greater than 100 µM; in the experiment with SK-OV-3 ovarian, 21.3 µM; in the experiment with HCC-2998 colon it was 50.7 µM. Also, the GI50 in the experiment on ACHN renal and in the experiment with HL-60(TB) leukemia was greater than 100 µM each time. Also, the TGI with UO-31 renal, with BT-549 breast, in the experiment on SK-MEL-28 melanoma, in the experiment with KM12 colon, in the experiment on SK-OV-3 ovarian and in the experiment with HCC-2998 colon was greater than 100 µM throughout. The TGI with ACHN renal and with HL-60(TB) leukemia was greater than 100 µM in each case.
Turning to `COc1cccc(N2CCN(CC(=O)N3CCN(c4nnc(-c5ccc(Cl)cc5)c(-c5ccc(Cl)cc5)n4)CC3)CC2)c1`, the GI50 in the experiment on UO-31 renal was 3.63 µM; in the experiment with BT-549 breast it was 12.9 µM; in the experiment with SK-MEL-28 melanoma, greater than 100 µM; in the experiment with KM12 colon it was 14.3 µM; in the experiment on SK-OV-3 ovarian, 22 µM; in the experiment on HCC-2998 colon it was greater than 100 µM. The GI50 in the experiment on ACHN renal was 10.8 µM; in the experiment with HL-60(TB) leukemia it was 3.84 µM. For the same compound, the TGI in the experiment with UO-31 renal is greater than 100 µM; with BT-549 breast it was greater than 100 µM; with SK-MEL-28 melanoma it was greater than 100 µM; in the experiment on KM12 colon it was greater than 100 µM; in the experiment on SK-OV-3 ovarian it was 77.6 µM; with HCC-2998 colon, greater than 100 µM. Further, the TGI with ACHN renal is 32.1 µM; in the experiment on HL-60(TB) leukemia, greater than 100 µM.
Take `CCOC(=O)Nc1ccc2c(c1)/C(=N\NC(N)=S)c1ccccc1-2`: the GI50 in the experiment with UO-31 renal is 3.97 µM; with BT-549 breast, 4.24 µM; in the experiment with SK-MEL-28 melanoma, 4.58 µM; in the experiment on KM12 colon, 3.29 µM; in the experiment on SK-OV-3 ovarian, 11.7 µM; in the experiment with HCC-2998 colon, 4.77 µM. For the same compound, the GI50 in the experiment with ACHN renal was 3.87 µM; in the experiment with HL-60(TB) leukemia, 4.24 µM. Besides, the TGI is 14.2 µM in the experiment with UO-31 renal; 14.3 µM in the experiment on BT-549 breast; 17.7 µM with SK-MEL-28 melanoma; 13.6 µM in the experiment with KM12 colon; 44.8 µM with SK-OV-3 ovarian; 22.5 µM in the experiment on HCC-2998 colon. The TGI is 15.7 µM in the experiment on ACHN renal and 16.1 µM in the experiment on HL-60(TB) leukemia.
On to `COc1ccc(-c2cc3c(c4cc(OC)ccc24)C(=O)OC3=O)cc1`, for which the TGI with UO-31 renal, in the experiment with BT-549 breast, with SK-MEL-28 melanoma, in the experiment with KM12 colon, in the experiment on SK-OV-3 ovarian and in the experiment with HCC-2998 colon was greater than 100 µM throughout. Moreover, the concentration for total growth inhibition (TGI) in the experiment with ACHN renal and in the experiment with HL-60(TB) leukemia was greater than 100 µM in each case.
On to `CCN1C(=O)N(CC)C2C1NN=c1s/c(=C\c3cccc(F)c3)c(=O)n12` (centres undefined), for which the GI50 in the experiment on UO-31 renal was 0.96 µM; in the experiment on BT-549 breast, 0.209 µM; with SK-MEL-28 melanoma, 13.1 µM; in the experiment with KM12 colon it was 0.0856 µM; in the experiment with SK-OV-3 ovarian, 2.59 µM; in the experiment with HCC-2998 colon, 0.223 µM. The GI50 is 0.196 µM in the experiment on ACHN renal and 0.0582 µM in the experiment with HL-60(TB) leukemia. Also, the TGI is greater than 100 µM with UO-31 renal; greater than 100 µM in the experiment on SK-MEL-28 melanoma; greater than 100 µM in the experiment on KM12 colon; greater than 100 µM in the experiment with SK-OV-3 ovarian; greater than 65.6 µM in the experiment with HCC-2998 colon; greater than 100 µM with ACHN renal. Further, in the experiment on HL-60(TB) leukemia, the TGI was determined as 0.46 µM.
In the case of `Clc1nc(Cl)c2ncn(CC3(Cn4cnc5c(Cl)nc(Cl)nc54)COC3)c2n1`, the GI50 in the experiment on UO-31 renal was 0.623 µM; in the experiment on BT-549 breast it was 0.501 µM; with SK-MEL-28 melanoma, 0.212 µM; with KM12 colon, 0.362 µM; with SK-OV-3 ovarian, 1.61 µM; with HCC-2998 colon, 0.221 µM. For the same compound, the values for the GI50 in the experiment on ACHN renal and in the experiment on HL-60(TB) leukemia were 0.57 µM and 0.354 µM, respectively. For the same compound, the TGI in the experiment with UO-31 renal was found to be 1.35 µM; with BT-549 breast, 1.69 µM; with SK-MEL-28 melanoma, 0.396 µM; in the experiment with KM12 colon, 1.01 µM; with SK-OV-3 ovarian, 2.98 µM; in the experiment on HCC-2998 colon, 0.389 µM. In addition, the values for the TGI in the experiment with ACHN renal and in the experiment on HL-60(TB) leukemia were 1.12 µM and 2.78 µM, respectively.
As to `O=C1C(Cl)=C(Nc2cccc(Cl)c2)C(=O)N1Cc1ccc(Cl)cc1`, the GI50 with UO-31 renal was 1.74 µM; with BT-549 breast it was 0.338 µM; in the experiment on SK-MEL-28 melanoma it was 3.12 µM; with KM12 colon, 2.83 µM; with SK-OV-3 ovarian, 6.34 µM; in the experiment with HCC-2998 colon it was 1.16 µM. Moreover, the GI50 with ACHN renal was 1.39 µM; in the experiment with HL-60(TB) leukemia, 1.65 µM. Further, the TGI worked out at 24.5 µM in the experiment on UO-31 renal; 2.84 µM in the experiment with BT-549 breast; 23.5 µM in the experiment on SK-MEL-28 melanoma; 14.2 µM with KM12 colon; 24.6 µM in the experiment with SK-OV-3 ovarian; 4.72 µM with HCC-2998 colon. Also, the TGI with ACHN renal is 15 µM; in the experiment on HL-60(TB) leukemia it was 15.7 µM.
Consider `COc1ncnc2c(-c3ccccc3)cn(COCc3ccccc3)c12`, for which the GI50 in the experiment with UO-31 renal is 2.58 µM; with BT-549 breast it was 2.57 µM; in the experiment on SK-MEL-28 melanoma, 3.33 µM; in the experiment on KM12 colon, 3.1 µM; in the experiment with SK-OV-3 ovarian, 7.69 µM; in the experiment with HCC-2998 colon, 4.01 µM. Also, the GI50 was 3.82 µM with ACHN renal and 3.22 µM in the experiment on HL-60(TB) leukemia. Besides, the TGI is 12 µM with UO-31 renal; 7.6 µM in the experiment with BT-549 breast; 48.9 µM with SK-MEL-28 melanoma; 19.9 µM with KM12 colon; greater than 100 µM in the experiment with SK-OV-3 ovarian; greater than 100 µM in the experiment on HCC-2998 colon. For the same compound, the TGI was greater than 100 µM in the experiment with ACHN renal and 18.1 µM in the experiment with HL-60(TB) leukemia.

Source of the values: PubChem BioAssay (NCI).
